The results in this text go back to ChEMBL document CHEMBL1201862, “PubChem BioAssay data set” (2004).

Assay [1] can be described thus: viability of PTEN-deleted HCT116 cells – cell-based, HCT116 PTEN knockout, dose response (AID 1047).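 Also: HCT116 colon tumor cells with PTEN knocked out; cells exposed to compound for 60 hours before readout; potency for loss of cell viability measured by luminescence.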 It counts as functional.
A short description of assay [2]: viability of HCT116 lacking mutant beta-catenin – cell-based, human colon tumor, dose response (AID 1045).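 Also: HCT116 colon tumor cells with beta catenin knocked out; cells exposed to compound for 60 hours.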 It counts as functional.
Assay [3] addresses Nonstructural protein 1 (Influenza A virus, UniProt Q194T2). It counts as functional, Influenza A virus (A/California/07/2009(H1N1)).
A short description of assay [4]: viability loss in HeLa cells – cytotoxicity control for MgcRacGAP inhibitor project, dose response (AID 624300). It counts as functional.
The target of assay [5] is T1, DNA repair protein RAD52 homolog (Homo sapiens, UniProt P43351).
T1 sequence (P43351 whole entry): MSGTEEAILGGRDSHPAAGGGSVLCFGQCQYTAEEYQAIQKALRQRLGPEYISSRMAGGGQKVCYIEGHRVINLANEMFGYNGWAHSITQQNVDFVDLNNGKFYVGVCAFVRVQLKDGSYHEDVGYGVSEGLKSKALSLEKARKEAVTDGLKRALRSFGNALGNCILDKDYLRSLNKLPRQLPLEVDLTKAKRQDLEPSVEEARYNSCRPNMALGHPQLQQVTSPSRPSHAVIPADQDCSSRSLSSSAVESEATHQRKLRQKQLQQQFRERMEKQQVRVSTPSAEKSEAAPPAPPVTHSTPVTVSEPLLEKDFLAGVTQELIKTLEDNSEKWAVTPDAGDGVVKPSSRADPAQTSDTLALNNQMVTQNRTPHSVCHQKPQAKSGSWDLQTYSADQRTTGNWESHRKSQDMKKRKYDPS
It counts as functional, biochemical.

Assay [6] in a line: toxicity toward HepG2 hepatoma cells – cell-based, dry powder samples, cytotoxicity control, dose response (AID 720568). It counts as functional.
Assay [7] deals with T2, Replicative DNA helicase DnaB (Mycobacterium tuberculosis, UniProt P9WMR3).
T2 sequence (P9WMR3 whole entry): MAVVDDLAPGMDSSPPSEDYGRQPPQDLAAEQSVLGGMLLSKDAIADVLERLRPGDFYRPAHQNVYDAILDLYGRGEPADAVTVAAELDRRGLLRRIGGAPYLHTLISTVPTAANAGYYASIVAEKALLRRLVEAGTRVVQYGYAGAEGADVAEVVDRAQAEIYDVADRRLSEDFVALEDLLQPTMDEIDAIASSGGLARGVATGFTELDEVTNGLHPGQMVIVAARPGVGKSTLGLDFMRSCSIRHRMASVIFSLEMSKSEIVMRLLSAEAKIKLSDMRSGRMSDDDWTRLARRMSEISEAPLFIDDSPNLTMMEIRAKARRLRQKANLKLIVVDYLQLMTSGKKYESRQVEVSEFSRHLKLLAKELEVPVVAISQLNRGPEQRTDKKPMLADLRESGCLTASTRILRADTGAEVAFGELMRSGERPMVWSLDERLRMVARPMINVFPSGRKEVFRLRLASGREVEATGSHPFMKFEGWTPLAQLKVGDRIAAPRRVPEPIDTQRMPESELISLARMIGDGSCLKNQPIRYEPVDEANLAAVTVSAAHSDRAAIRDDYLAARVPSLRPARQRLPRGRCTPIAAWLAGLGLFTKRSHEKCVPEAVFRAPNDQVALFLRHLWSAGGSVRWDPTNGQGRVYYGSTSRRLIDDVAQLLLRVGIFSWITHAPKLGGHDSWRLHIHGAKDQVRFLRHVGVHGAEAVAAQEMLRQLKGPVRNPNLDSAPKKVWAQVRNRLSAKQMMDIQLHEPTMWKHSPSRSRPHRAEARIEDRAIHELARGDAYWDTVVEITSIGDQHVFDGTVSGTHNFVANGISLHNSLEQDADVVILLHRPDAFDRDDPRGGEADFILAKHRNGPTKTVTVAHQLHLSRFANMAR
The assay can be described thus: DnaB intein splicing inhibitors, dose response, biochemical, cell-free fluorescence (AID 449749). In kind it is functional.

A short description of assay [8]: NIH-3T3 fibroblast cytotoxicity, dose response, cytotoxicity control, cell-based, fluorescence, Alamar Blue, secondary assay (AID 2327).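 Also: NIH-3T3 mouse fibroblasts cultured with fluconazole at 8 µg/mL.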 In kind it is functional. Background: The colour change of resazurin is a common sign of viable cells or microbes.
Assay [9] is described as follows: fluconazole-exposed Candida albicans growth modulators – fluorescence, retest, confirmation (AID 2467). In kind it is functional, cell-based.
The target in assay [10] is Troponin, cardiac muscle (Homo sapiens, UniProt P19429+P45379+P63316). The assay can be described thus: compounds desensitizing RTF to calcium – biochemical, fluorescence, cardiac regulated thin filaments, triplicate IC50, dose response (AID 504742). In kind it is protein-complex assay.
The target in assay [11] is Genome polyprotein (dengue virus type 2, UniProt P29990). Briefly: flavivirus cap methylation enzyme inhibition – biochemical, confirmation dose response, primary screen (AID 588689). In kind it is functional.
Assay [12] has as its target Polyadenylate-binding protein 1 (Homo sapiens, UniProt P11940). The assay can be described thus: MLLE binding blockers, Cy5 peptide tracer – biochemical, fluorescence polarization, Cy5-PAM2 peptide, secondary, miRNA deadenylation inhibitor project, dose response (AID 602260). It counts as functional. Conditions: read-out: IC50_Mean. (In general: Fluorescence polarisation rises when a labelled molecule tumbles more slowly, as on binding a larger partner.)

Assay [13] deals with Tyrosyl-DNA phosphodiesterase 2 (Homo sapiens, UniProt O95551). The assay can be described thus: potency against TDP2 phosphodiesterase activity – biochemical, epi absorbance, IC50, dose response (AID 743297).
Assay [14] addresses Serine/threonine-protein phosphatase PP1-alpha catalytic subunit (Homo sapiens, UniProt P62136). Briefly: inhibition of protein phosphatase 1 activity – biochemical, fluorescence, dose response (AID 2394).
In assay [15] the target is Serine/threonine-protein phosphatase (Homo sapiens, UniProt Q9BPW0). Briefly: inhibition of protein phosphatase 5 activity – biochemical, fluorescence, dose response (AID 2395).
Assay [16] concerns the target T3, Sentrin-specific protease 8 (Homo sapiens, UniProt Q96LD8).
T3 sequence (Q96LD8 whole entry): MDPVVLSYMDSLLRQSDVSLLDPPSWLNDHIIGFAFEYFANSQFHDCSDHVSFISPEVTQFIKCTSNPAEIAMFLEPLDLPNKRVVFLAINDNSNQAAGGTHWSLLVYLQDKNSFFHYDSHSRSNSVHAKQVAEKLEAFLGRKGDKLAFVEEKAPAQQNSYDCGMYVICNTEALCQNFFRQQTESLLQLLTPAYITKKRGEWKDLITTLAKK
It counts as functional.

In assay [17] the target is T3, Sentrin-specific protease 8. It counts as functional. The source holds these as a separate data set.
Assay [18] deals with T4, Caspase-3 (Homo sapiens, UniProt P42574).
T4 sequence (P42574 whole entry): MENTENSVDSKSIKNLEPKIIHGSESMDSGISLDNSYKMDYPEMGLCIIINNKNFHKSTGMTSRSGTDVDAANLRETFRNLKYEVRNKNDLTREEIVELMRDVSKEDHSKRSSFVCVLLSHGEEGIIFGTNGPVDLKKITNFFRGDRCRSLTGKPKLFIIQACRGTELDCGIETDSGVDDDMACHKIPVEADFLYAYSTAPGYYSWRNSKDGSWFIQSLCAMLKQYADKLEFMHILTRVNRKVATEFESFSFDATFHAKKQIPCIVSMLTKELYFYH
The assay can be described thus: Dose-response confirmation of uHTS inhibitor hits of Sentrin-Specific Protease 8 in a Caspase-3 Fluorescence assay. It counts as functional.

For assay [19], the target named is Proto-oncogene tyrosine-protein kinase receptor Ret (Homo sapiens, UniProt P07949). In kind it is functional.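 Also: measured within a kinome-wide profiling panel, RET as the panel member.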
In assay [20] the target is Focal adhesion kinase 1 (Homo sapiens, UniProt Q05397). In kind it is functional.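 Also: measured as one member of a kinome panel.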

Active and inactive are the calls of the source.

For `CCN(CC)CCOc1ccc2c(c1)C(=NNC(=O)c1ccccn1)c1cc(OCCN(CC)CC)ccc1-2`, the results for the EC50 in [1] and in assay [2] were 3.25 µM (active) and 2.17 µM (active), respectively. Further, the IC50 in assay [3] is 13.8 µM (active). In addition, the CC50 (as a rule, the concentration that lowers cell viability or growth by half) in assay [4] was 31.7 µM (active). The AC50 (commonly the concentration at which the activity in the assay is half-maximal) was < 0.15 µM (active) in assay [5] and 6.14 µM (active) in assay [6].
With `O=C(NC1=C(Nc2ccc(F)cc2)C(=O)c2ccccc2C1=O)c1ccc(Cl)cc1`, the AC50 in [7] was 11.8 µM (active).
With `O=C(O)c1ccc2c(c1)[C@@H]1C=CC[C@@H]1[C@H](c1ccccn1)N2`, the EC50 (in general, the midpoint of the concentration-response curve) in assay [8] was > 150 µM (inactive); in assay [9], > 38 µM (not active). In addition, the IC50 was > 71.5 µM (inactive) in assay [10], 26.3 µM (active) in assay [11] and > 66 µM (inactive) in [12].
Consider `Oc1nc(Nc2ccc(F)cc2)cc2ccccc12`, for which the IC50 in assay [13] was 7.66 µM (active).
In the case of `CN(C)c1cc(N/N=C\c2ccccc2)nc(N(C)C)n1`, the IC50 in assay [14] is > 67 µM (not active); in assay [15], 6.1 µM (active); in [16] it was 0.368 µM (active); in [17] it was 0.661 µM (active); in assay [18] it was 50.7 µM (active).
On to `NC(COc1cncc(-c2ccc3c(c2)C(=Cc2ccc[nH]2)C(=O)N3)c1)Cc1ccccc1` (stereo not given), for which the figures for the Ki in [19] and in assay [20] were 0.00501 µM (active) and 2 µM (active), respectively.
